Assay results reported in patent EP0603755A2, “Cephalosporin salts and processes for their preparation” (HOECHST AKTIENGESELLSCHAFT, priority 1992, dated 1994).
Each block holds one compound with its values, some of them ahead of it.

Assays:
[1] = Pharmacokinetics after intramuscular administration; antibiotic content in blood/serum by agar diffusion test; type: in vivo, Hund
Source text: Zur Bestimmung der pharmakokinetischen Eigenschaften der erfindungsgemäßen Cephalosporin-Articainsalze wurden unter […] Untersuchungen an Mäusen und Hunden durchgeführt. Die […] und die korrespondierenden Alkalisalze der Cephalosporine wurden in therapeutisch üblichen Dosierungen intramuskulär verabreicht. Zu festgelegten Zeitpunkten nach der Injektion des Antibiotikums wurden den Versuchstieren Blutproben entnommen und der Antibiotika-Gehalt im Blut bzw. Serum mit Hilfe des Agardiffusionstestes bestimmt. Die pharmakokinetischen […] Computerprogramms ermittelt.

[2] = Qualitative solubility of the salts (observed on crystallisation from water); settings: in water, partly relative to the salt of the other Articain enantiomer

Halbwertszeit ([1]; dog, in vivo, im): 4,1 Stunden
SMILES: CCCNC(C)C(=O)Nc1c(C)csc1C(=O)OC.CON=C(C(=O)NC1C(=O)N2C(C(=O)O)=C(COC(C)=O)CSC12)c1csc(N)n1 (single isomer, unassigned; (+)) [(+)-Articain-Cefotaxim, ( +)-Articain-Cefotaximsalz]

Halbwertszeit ([1]; Hund, intramuscular application, blood/serum level by agar diffusion test): 6,6 Stunden
SMILES: CCCCOC(=O)c1scc(C)c1NC(=O)C(C)NCCC.CO/N=C(\C(=O)N[C@@H]1C(=O)N2C(C(=O)O)=C(COC(C)=O)CS[C@H]12)c1csc(N)n1 [Beispiel 10, Cefotaximsalz von (+ )n-Butyl 4-methyl-3(2-n-propylaminopropionamido) thiophen-2-carboxylat]

Löslichkeit [2]: schwerlösliche
SMILES: CCCNC(C)C(=O)Nc1c(C)csc1C(=O)OC.CON=C(C(=O)NC1C(=O)N2C(C(=O)O)=C(COC(N)=O)CSC12)c1ccco1 (single isomer, unassigned; (+)) [(+) Articain-Cefuroximsalz]

half-life ([1]; dog, im, Hund, intramuscular application, blood/serum level by agar diffusion test, read-out: Halbwertszeit (converted)): 48 min
SMILES: CO/N=C(\C(=O)N[C@@H]1C(=O)N2C(C(=O)O)=C(COC(C)=O)CS[C@H]12)c1csc(N)n1 [Cefotaxim, reference compound]

Löslichkeit [2]: leichter löslich in Wasser
SMILES: CCCNC(C)C(=O)Nc1c(C)csc1C(=O)OC.CON=C(C(=O)NC1C(=O)N2C(C(=O)O)=CCSC12)c1csc(N)n1 (single isomer, unassigned; (-)) [(-)-Articain-Ceftizoximsalz]
